Measured values from patent US6667173B2, “Nucleic acids encoding platelet derived growth factor-alpha receptors” (The Schepens Eye Research Institute, priority 2000, dated 2003).
Entries after “also recorded” stand apart in the source; their conditions may differ.

Experiments:
rabbit eyes = settings: previously found (Rosenkranz et al. 2000); cited from earlier work
PLCγ = test: Co-immunoprecipitation of PLCγ with αPDGFR mutants in F cells; format: cell-based, mouse; settings: 50 ng/ml PDGF-BB, 5 minutes
Procedure: (§1) The ability of the αPDGFR mutants to undergo ligand dependent tyrosine phosphorylation and to associate with signaling enzymes was then tested. F cells expressing various αPDGFR mutants were grown to subconfluence and serum starved overnight. Cells were either left resting (−) or stimulated with 50 ng/ml PDGF-BB (+) for 5 minutes, and lysed. The αPDGFR was immunoprecipitated with αPDGFR antibody, as described above, and the resulting immunoprecipitates were resolved by 7.5% SDS-PAGE and transferred onto Immobilon. The segment of the blot containing the αPDGFR was first blotted with anti-phosphotyrosine antibodies, then stripped and reprobed with an anti-αPDGFR antibody. Portions of the membrane that contained the proteins of the appropriate molecular mass were immunoblotted for PLCγ, the regulatory subunit of PI3K (p85), or SHP-2. Crude rabbit anti-p85 antibody is from Dr. A. Toker (Beth Israel Hospital/Harvard Medical School, Boston, Mass.). The monoclonal antibodies against PLCγ and SHP-2 were purchased from Upstate Biotechnology Inc.

PI3K (p85) = test: Co-immunoprecipitation of the regulatory subunit of PI3K (p85) with αPDGFR mutants in F cells; format: cell-based, mouse; settings: 50 ng/ml PDGF-BB, 5 minutes
Procedure: as §1

F cells = test: Collagen gel contraction assay of F cells expressing αPDGFR mutants; format: cell-based, mouse; settings: PDGF-BB (50 ng/ml), 48 hours
Procedure: The contraction assay was based on a previously described reference, Skuta, G. et al. (1999) J. Biol. Chem. 274:30163, with the following modifications. Fα cells were suspended in 1.5 mg/ml of neutralized collagen I (Cohesion vitrogen 100, Palo Alto, Calif.) at a density of 10^6 cells/ml, and were transferred into the 24-well plate (Falcon, Franklyn Lakes, N.J.) that had been preincubated with phosphate-buffer saline (PBS) with 5 mg/ml of bovine serum albumin (BSA) overnight. The gel was solidified by incubating at 37° C. for 90 minutes, and then the well was flooded with DMEM+5 mg/ml of BSA supplemented with an amount of vitreous such that the final concentration of vitreous in the culture medium was 1, 5 or 20%. The gels were incubated at 37° C. with 5% CO2. The initial gel diameter was 15 mm. The media was replaced every 24 hours and the gel diameter was measured after 48 hours. The extent of contraction was calculated by subtracting the diameter of the well at 48 hours from the initial diameter (15 mm). Each experimental condition was assayed in triplicate, and at least three independent experiments were performed. Unpaired t-test was performed to detect statistic difference in contraction assay.
To determine the signaling pathways that drive contraction, cells expressing the αPDGFR mutants were subjected to the collagen gel contraction assay described above. Accordingly, F cells expressing the indicated αPDGFRs were subjected to the collagen gel assay in the presence of buffer, PDGF-BB (50 ng/ml), TGFβ1 (1 ng/ml), or FBS (10%). The data presented are the mean±standard deviation measured at the 48 hours time point. Each experimental condition was assayed in triplicate, and at least 3 independent experiments were performed.

SHP-2 = test: Co-immunoprecipitation of SHP-2 with αPDGFR mutants in F cells; format: cell-based, mouse; settings: 50 ng/ml PDGF-BB, 5 minutes
Procedure: as §1

Src family kinases = settings: cited from earlier work

F72/74: αPDGFR mutant, Tyr to Phe substitution at 572 and 574
potential to induce PVR (rabbit eyes): induced PVR with slightly accelerated kinetics
recruitment or activation of PLCγ (Properties) (PLCγ): bind all of these signaling enzymes
recruitment of PI3K / p85 (Properties) (PI3K (p85)): bind all of these signaling enzymes
PDGF-dependent contraction (F cells): no effect on contraction
recruitment of SHP-2 (Properties) (SHP-2): bind all of these signaling enzymes
recruitment or activation of Src family kinases (Properties) (Src family kinases): selectively fails to associate with Src family kinases; also recorded: Fails to recruit or activate
